From patent US12065428B2, “Anti-viral compounds” (Aligos Therapeutics, Inc., priority 2021, dated 2024)
Like-named read-outs stand apart in the source and are kept apart here.

Legend:
SARS-Cov-2 3CLpro = molecular target: T1, SARS-Cov-2 3CLpro (Severe acute respiratory syndrome coronavirus 2, UniProt P0DTD1); assay: SARS-Cov-2 3CLpro and HRV3C duplex assay (SAMDI-MS): 3CLpro; format: biochemical; conditions: 3CLpro, duplex assay, 30 mins preincubation; class symbols; read-out: SARS-Cov-2 IC50
T1 construct: SARS-Cov-2 3CLpro and HRV3C Duplex Assay

HRV3C = molecular target: T2, HRV3C (Human rhinovirus 14, UniProt P03303); assay: biochemical; conditions: read-out: HRV IC50
T2 construct: SARS-Cov-2 3CLpro and HRV3C Duplex Assay
T2 sequence (P03303 1538-1719): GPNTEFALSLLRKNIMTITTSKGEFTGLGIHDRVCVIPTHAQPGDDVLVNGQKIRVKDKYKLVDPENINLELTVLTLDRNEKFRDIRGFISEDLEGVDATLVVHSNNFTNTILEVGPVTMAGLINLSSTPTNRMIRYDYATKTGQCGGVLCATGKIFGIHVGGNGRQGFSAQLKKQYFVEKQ

[1] = system: human beta-coronavirus OC43; assay: OC43 coronavirus assay in HeLa cells (cytopathic effect, cell-titer-glo); format: cell-based
[2] = Cytotoxicity plates without OC43 virus in HeLa cells; format: cell-based; conditions: human, HeLa cells (uninfected)
Protocol: The human beta-coronavirus OC43 was purchased from ATCC (Manassas, VA) and propagated using HCT-8 human colorectal epithelial cells (ATCC). HeLa human cervical epithelial cells (ATCC) were used as susceptible host cell lines and were cultured using EMEM media, supplemented with 10% fetal bovine serum (FBS), 1% (v/v) penicillin/streptomycin (P/S), 1% (v/v) HEPES and 1% (v/v) cellgro Glutagro™ supplement (all Corning, Manassas, VA) at 37° C. For the OC43 antiviral assay, 1.5×10^4 HeLa cells per well were plated in 100 μL complete media in white 96-well plates with clear bottoms at 37° C. for up to 24 h to facilitate attachment and allow cells to recover from seeding stresses. Next day, the cell culture medium was removed. Serially diluted compounds in 100 μL assay media (EMEM, 2% FBS, 1% P/S, 1% cellgro Glutagro™ supplement, 1% HEPES) were added to the cells and incubated for 4H at 37° C. in a humidified 5% CO2 incubator. 100 μL of OC43 virus stock was diluted to a concentration known to produce optimal cytopathic effect, inducing 80-90% reduction in cell viability. 96-well plates were incubated for 6 (HeLa) days at 33° C.; each plate contains uninfected control wells as well as virus-infected wells that were not treated with compound. Cytotoxicity plates without the addition of OC43 virus were carried out in parallel. At the end of the incubation period, 100 μL cell culture supernatant was replaced with 100 μL cell-titer-glo reagent (Promega, Madison, WI) and incubated for at least 10 min at rt prior to measuring luminescence. Luminescence was measured on a Perkin Elmer (Waltham, MA) Envision plate reader. Antiviral % inhibition was calculated as follows: [(Compound treated cells infected sample)−(no compound infected control)]/[(Uninfected control)−(no compound infected control)]*100; Using GraphPad (San Diego, CA) prism software version 8.3.1, the antiviral dose-response plot was generated as a sigmoidal fit, log(inhibitor) vs response-variable slope (four parameters) model and the EC50 was calculated which is the predicted compound concentration corresponding to a 50% inhibition of the viral cytopathic effect.

[3] = system: SARS-CoV-2-GHB-03021/2020; assay: microbe, parasite or virus in culture; format: cell-based; conditions: Severe acute respiratory syndrome coronavirus 2, Vero C1008, 96 h; read-out: VeroE6 + CP (EC50)
human cathepsin L = molecular target: T3, human cathepsin L (Homo sapiens, UniProt P07711); assay: Cathepsin L assay (Z-FR-AMC fluorescence); format: biochemical; conditions: 10 pM human cathepsin L, 30 mins preincubation; class symbols
T3 construct: purchased R&D Systems
T3 sequence (P07711 114-333): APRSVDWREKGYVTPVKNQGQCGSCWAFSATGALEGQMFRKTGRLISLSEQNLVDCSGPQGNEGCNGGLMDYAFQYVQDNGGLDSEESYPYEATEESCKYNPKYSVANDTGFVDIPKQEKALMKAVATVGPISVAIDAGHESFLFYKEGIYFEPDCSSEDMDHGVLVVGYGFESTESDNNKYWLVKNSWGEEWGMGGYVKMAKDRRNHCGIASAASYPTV
Protocol: For the cathepsin L assay, 10 pM of human cathepsin L (R&D Systems; Minneapolis, MN) was preincubated for 30 mins with test compounds. Reactions were initiated by the addition of a peptide substrate Z-FR-AMC (final concentration 2 μM, Anaspec; Fremont, CA). Fluorescence was measured at 2-minute intervals for 30 mins using a 355/460 excitation/emission filter module on an Envision plate reader (Perkin Elmer; Waltham, MA). The IC50 values were calculated for each assay by fitting the curves using a four-parameter equation in GraphPad Prism.

[4] = Betacoronavirus 1, 144 h, OC43 in HeLa cells, 6 days at 33° C., class symbols, read-out: EC50
[5] = HRV3C, duplex assay, 30 mins preincubation, class symbols

Row | SMILES | IC50 (SARS-Cov-2 3CLpro) | IC50 (HRV3C) | EC50 [1, 4] | CC50 at 6 days ([2]; class symbols) | EC50 [3] | IC50 (human cathepsin L) | IC50 (HRV3C; [5]) | CC50 at 6 days ([2]; numeric bound, unit inferred) | EC50 ([1]; Betacoronavirus 1, OC43, HeLa)
1 | CC(C)(C)[C@H](NC(=O)C(F)(F)F)C(=O)N1CCC2(CC2)C[C@H]1C(=O)N[C@H](C#N)C[C@@H]1CCNC1=O [Compound 35, (S)—N—((S)-1-cyano-2-((S)-2-oxopyrrolidin-3-yl)ethyl)-6-((S)-3,3-dimethyl-2-(2,2,2-trifluoroacetamido)butanoyl)-6-azaspiro[2.5]octane-5-carboxamide] | < 20 nM | > 10000 nM | 100 to 1000 nM | ≥ 100000 nM | < 1000 nM | ≥ 10000 nM | – | – | –
2 | COc1cccc(-c2csc(C(=O)N3CCC4(CC4)C[C@H]3C(=O)N[C@@H](C[C@@H]3CCNC3=O)C(=O)C(=O)NC3CC3)n2)c1 [Compound 36] | 200 to 2000 nM | – | 100 to 1000 nM | – | 1000 to 10000 nM | ≥ 10000 nM | 2000 to 20000 nM | > 100000 nM | –
3 | COc1ccc(-c2csc(C(=O)N3CCC4(CC4)C[C@H]3C(=O)N[C@@H](C[C@@H]3CCNC3=O)C(=O)C(=O)NC3CC3)n2)cc1 [Compound 37] | 200 to 2000 nM | – | 100 to 1000 nM | – | 1000 to 10000 nM | ≥ 10000 nM | 200 to 2000 nM | > 100000 nM | –
4 | Cc1sc(C(=O)N2CCC3(CC3)C[C@H]2C(=O)N[C@@H](C[C@@H]2CCNC2=O)C(=O)C(=O)NC2CC2)nc1-c1ccccc1 [Compound 38] | 200 to 2000 nM | – | 100 to 1000 nM | – | 1000 to 10000 nM | ≥ 10000 nM | 2000 to 20000 nM | > 100000 nM | –
5 | CC(C)(C)c1csc(C(=O)N2CCC3(CC3)C[C@H]2C(=O)N[C@@H](C[C@@H]2CCNC2=O)C(=O)C(=O)NC2CC2)n1 [Compound 39] | 200 to 2000 nM | – | 100 to 1000 nM | – | 1000 to 10000 nM | 1000 to 10000 nM | 2000 to 20000 nM | > 100000 nM | –
6 | O=C(NC1CC1)C(=O)[C@H](C[C@@H]1CCNC1=O)NC(=O)[C@@H]1CC2(CCN1C(=O)c1csc(-c3ccccc3)n1)CC2 [Compound 40] | 200 to 2000 nM | – | 100 to 1000 nM | – | 1000 to 10000 nM | ≥ 10000 nM | 200 to 2000 nM | > 100000 nM | –
7 | O=C(NC1CC1)C(=O)[C@H](C[C@@H]1CCNC1=O)NC(=O)[C@@H]1CC2(CCN1C(=O)c1cccc(-c3ccccc3)n1)CC2 [Compound 41] | 200 to 2000 nM | – | 100 to 1000 nM | – | 1000 to 10000 nM | ≥ 10000 nM | 200 to 2000 nM | > 100000 nM | –
8 | COc1ccccc1-c1csc(C(=O)N2CCC3(CC3)C[C@H]2C(=O)N[C@@H](C[C@@H]2CCNC2=O)C(=O)C(=O)NC2CC2)n1 [Compound 42] | 200 to 2000 nM | > 10000 nM | 100 to 1000 nM | – | 1000 to 10000 nM | ≥ 10000 nM | – | > 100000 nM | –
9 | O=C(NC1CC1)C(=O)[C@H](C[C@@H]1CCNC1=O)NC(=O)[C@@H]1CC2(CCN1C(=O)c1nc(-c3ccccc3Cl)cs1)CC2 [Compound 43] | 200 to 2000 nM | > 10000 nM | 100 to 1000 nM | – | 1000 to 10000 nM | ≥ 10000 nM | – | > 100000 nM | –
10 | O=C(NC1CC1)C(=O)[C@H](C[C@@H]1CCNC1=O)NC(=O)[C@@H]1CC2(CCN1C(=O)c1nc(-c3ccc(Cl)cc3)cs1)CC2 [Compound 44] | 200 to 2000 nM | > 10000 nM | 100 to 1000 nM | 10000 to 100000 nM | 1000 to 10000 nM | ≥ 10000 nM | – | – | –
11 | O=C(NC1CC1)C(=O)[C@H](C[C@@H]1CCNC1=O)NC(=O)[C@@H]1CC2(CCN1C(=O)c1csc(-c3cccc(Cl)c3)n1)CC2 [Compound 45] | 20 to 200 nM | – | 100 to 1000 nM | 10000 to 100000 nM | < 1000 nM | ≥ 10000 nM | 2000 to 20000 nM | – | –
12 | O=C(NC1CC1)C(=O)[C@H](C[C@@H]1CCNC1=O)NC(=O)[C@@H]1CC2(CCN1C(=O)c1nc(C3CCCCC3)cs1)CC2 [Compound 46] | 200 to 2000 nM | > 10000 nM | 100 to 1000 nM | – | 1000 to 10000 nM | 1000 to 10000 nM | – | > 100000 nM | –
13 | O=C(NC1CC1)C(=O)[C@H](C[C@@H]1CCNC1=O)NC(=O)[C@@H]1CC2(CCN1C(=O)[C@@H]1C[C@@H]1c1ccccc1)CC2 [Compound 47] | 2000 to 20000 nM | – | – | – | > 50000 nM | ≥ 10000 nM | 200 to 2000 nM | > 100000 nM | > 10000 nM
14 | O=C(NC1CC1)C(=O)[C@H](C[C@@H]1CCNC1=O)NC(=O)[C@@H]1CC2(CCN1C(=O)[C@@H]1C[C@H]1c1ccccc1)CC2 [Compound 48] | 20 to 200 nM | – | 100 to 1000 nM | – | 1000 to 10000 nM | 1000 to 10000 nM | 200 to 2000 nM | > 100000 nM | –
15 | O=C(NC1CC1)C(=O)C(C[C@@H]1CCNC1=O)NC(=O)[C@@H]1[C@@H]2C[C@@H](CC23CC3)N1C(=O)c1ncc(-c2ccccc2)s1 (stereo partly drawn) [Compound 49, N-cyclopropyl-2-oxo-4-[(3S)-2-oxopyrrolidin-3-yl]-3-[(1R,4S,6S)-5-(5-phenyl-1,3-thiazole-2-carbonyl)-5-azaspiro[bicyclo[2.2.1]heptane-2,1′-cyclopropan]-6-ylformamido]butanamide] | 20 to 200 nM | – | 100 to 1000 nM | – | < 1000 nM | ≥ 10000 nM | 2000 to 20000 nM | > 100000 nM | –
16 | CC(C)(C)[C@H](NC(=O)C(F)(F)F)C(=O)N1[C@H]2C[C@@H]([C@H]1C(=O)N[C@H](C#N)C[C@@H]1CCNC1=O)C1(CC1)C2 [Compound 50, (1R,4S,6S)—N-[(1S)-1-cyano-2-[(3S)-2-oxopyrrolidin-3-yl]ethyl]-5-[(2S)-3,3-dimethyl-2-(2,2,2-trifluoroacetamido)butanoyl]-5-azaspiro[bicyclo[2.2.1]heptane-2,1′-cyclopropane]-6-carboxamide] | < 20 nM | > 10000 nM | < 100 nM | – | < 1000 nM | ≥ 10000 nM | – | > 100000 nM | –
17 | CC(C)(C)[C@H](NC(=O)C(F)(F)F)C(=O)N1CCC2(C[C@H]1C(=O)N[C@H](C#N)C[C@@H]1CCNC1=O)CC(F)(F)C2 [Compound 51, (S)—N—((S)-1-cyano-2-((S)-2-oxopyrrolidin-3-yl)ethyl)-7-((S)-3,3-dimethyl-2-(2,2,2-trifluoroacetamido)butanoyl)-2,2-difluoro-7-azaspiro[3.5]nonane-6-carboxamide] | 200 to 2000 nM | > 10000 nM | 1000 to 10000 nM | – | 1000 to 10000 nM | ≥ 10000 nM | – | > 100000 nM | –
